Read-outs that look alike come from different tables or passages of the source.
Target: T1, CFTR (Homo sapiens, UniProt P13569)
T1 construct: endogenous in cells; host or cells: T84 human colonic cells (ECACC)
Assay: T84 assay (FLIPR membrane potential dye, forskolin/IBMX-stimulated CFTR channel activity)
Assay type: cell-based
Procedure, shortened: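 Fluorescence from a membrane potential dye in T84 monolayers (HBSS with 10 mM Hepes) is followed each second for 150 s. Cells are exposed to test compound during the 45 min dye loading, then challenged with forskolin (10 μM) and IBMX (100 μM) to open CFTR. Inhibitors suppress the depolarization-driven fluorescence increase.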

[1] = imidazole and triazole-containing compounds (Tables 13, 14, 14′), read-out: IC50 (μM) (T84 assay)
[2] = oxadiazole-containing compounds (a series), average of at least 2 runs unless annotated n = 1, read-out: IC50

T1 sequence (P13569 whole entry): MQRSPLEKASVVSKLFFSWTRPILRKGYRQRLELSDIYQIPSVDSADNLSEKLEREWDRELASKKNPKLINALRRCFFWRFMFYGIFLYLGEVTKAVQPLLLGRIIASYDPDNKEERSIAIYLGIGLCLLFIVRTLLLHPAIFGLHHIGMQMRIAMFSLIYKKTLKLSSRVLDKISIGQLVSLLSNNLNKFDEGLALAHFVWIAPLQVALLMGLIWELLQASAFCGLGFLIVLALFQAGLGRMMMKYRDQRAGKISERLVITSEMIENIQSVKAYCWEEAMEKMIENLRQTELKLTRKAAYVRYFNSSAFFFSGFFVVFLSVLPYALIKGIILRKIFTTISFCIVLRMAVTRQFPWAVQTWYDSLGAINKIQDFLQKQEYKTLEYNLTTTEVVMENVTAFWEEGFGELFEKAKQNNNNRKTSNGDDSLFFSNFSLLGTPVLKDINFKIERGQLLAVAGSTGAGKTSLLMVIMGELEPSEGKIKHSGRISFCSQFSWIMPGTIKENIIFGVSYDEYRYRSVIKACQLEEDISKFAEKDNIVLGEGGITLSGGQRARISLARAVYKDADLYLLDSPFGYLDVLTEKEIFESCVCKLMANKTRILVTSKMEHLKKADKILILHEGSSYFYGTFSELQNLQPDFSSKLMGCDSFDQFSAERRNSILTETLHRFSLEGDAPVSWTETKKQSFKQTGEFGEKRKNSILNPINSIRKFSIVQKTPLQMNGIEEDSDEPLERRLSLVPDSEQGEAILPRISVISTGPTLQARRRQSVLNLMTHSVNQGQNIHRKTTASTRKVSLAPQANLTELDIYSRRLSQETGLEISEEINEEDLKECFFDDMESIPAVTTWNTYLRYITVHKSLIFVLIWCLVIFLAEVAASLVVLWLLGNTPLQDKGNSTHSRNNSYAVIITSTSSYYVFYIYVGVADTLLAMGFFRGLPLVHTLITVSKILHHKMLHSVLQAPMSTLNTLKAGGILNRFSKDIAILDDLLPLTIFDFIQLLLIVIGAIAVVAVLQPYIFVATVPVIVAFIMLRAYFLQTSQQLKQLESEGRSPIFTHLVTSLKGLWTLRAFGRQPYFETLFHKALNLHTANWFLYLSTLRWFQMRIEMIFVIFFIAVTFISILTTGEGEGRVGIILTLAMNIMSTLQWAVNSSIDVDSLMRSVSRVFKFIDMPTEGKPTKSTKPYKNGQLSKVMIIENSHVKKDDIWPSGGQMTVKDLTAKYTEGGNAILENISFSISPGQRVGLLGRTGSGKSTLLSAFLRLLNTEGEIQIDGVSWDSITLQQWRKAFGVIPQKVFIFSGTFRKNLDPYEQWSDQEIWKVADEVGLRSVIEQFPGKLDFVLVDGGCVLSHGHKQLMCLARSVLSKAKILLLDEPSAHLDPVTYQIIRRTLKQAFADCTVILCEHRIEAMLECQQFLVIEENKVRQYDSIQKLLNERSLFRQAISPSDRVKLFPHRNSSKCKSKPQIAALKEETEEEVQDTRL

IC50 [2]	SMILES	other results
–	O=C(NCc1cc(F)c(F)c(F)c1)c1ncn(-c2cc(Cl)c(O)c(Cl)c2)n1 [43i, 1-(3,5-dichloro-4-hydroxyphenyl)-N-(3,4,5-trifluorobenzyl)-1H-1,2,4-triazole-3-carboxamide]	IC50 [1]: 13.3 µM
–	O=C(NCc1ccc(N2CCCCC2)cc1)c1ncn(-c2cc(Cl)c(O)c(Cl)c2)n1 [45i, 1-(3,5-dichloro-4-hydroxyphenyl)-N-(4-(piperidin-1-yl)benzyl)-1H-1,2,4-triazole-3-carboxamide]	IC50 [1]: 8.22 µM
–	O=C(NCc1cccc(-n2cccn2)c1)c1ncn(-c2cc(Cl)c(O)c(Cl)c2)n1 [46i]	IC50 [1]: 28.6 µM
–	O=C(NCc1cccc(Cl)c1)c1ncn(-c2cc(Cl)c(O)c(Cl)c2)n1 [47i, N-(3-chlorobenzyl)-1-(3,5-dichloro-4-hydroxyphenyl)-1H-1,2,4-triazole-3-carboxamide]	IC50 [1]: 12.6 µM
–	O=C(NCc1ccc(Cl)cc1)c1ncn(-c2cc(Cl)c(O)c(Cl)c2)n1 [48i, N-(4-chlorobenzyl)-1-(3,5-dichloro-4-hydroxyphenyl)-1H-1,2,4-triazole-3-carboxamide]	IC50 [1]: 8.67 µM
3.35 µM	C=CCN(Cc1cccc(C(F)(F)F)c1)C(=O)c1nc(-c2cc(Br)c(O)c(Br)c2)no1 [59a, N-allyl-3-(3,5-dibromo-4-hydroxyphenyl)-N-(3-(trifluoromethyl)benzyl)-1,2,4-oxadiazole-5-carboxamide]	–
12.6 µM	CCN(Cc1cccc(C(F)(F)F)c1)C(=O)c1nc(-c2cc(Br)c(O)c(Br)c2)no1 [60a, 3-(3,5-Dibromo-4-hydroxyphenyl)-N-ethyl-N-(3-(trifluormethyl)benzyl)-1,2,4-oxadiazole-5-carboxamide]	–
–	O=C(c1ccccc1)C1CCN(C(=O)c2ncn(-c3cc(Cl)c(O)c(Cl)c3)n2)CC1 [61i, (4-benzoylpiperidin-1-yl)(1-(3,5-dichloro-4-hydroxyphenyl)-1H-1,2,4-triazol-3-yl)methanone]	IC50 [1]: 26.7 µM
18.6 µM	CN(Cc1ccccc1)C(=O)c1nc(-c2cc(Cl)c(O)c(Cl)c2)no1 [62a, N-benzyl-3-(3,5-dichloro-4-hydroxyphenyl)-N-methyl-1,2,4-oxadiazole-5-carboxamide]	–
11.7 µM	O=C(c1noc(-c2cc(Br)c(O)c(Br)c2)n1)N1CCC(Cc2ccccc2)CC1 [66a, (4-benzylpiperidin-1-yl)(5-(3,5-dibromo-4-hydroxyphenyl)-1,2,4-oxadiazol-3-yl)methanone]	–
10.3 µM	COC(=O)C1CCN(C(=O)COc2c(Br)cc(-c3noc(C(=O)N4CCC(Cc5ccccc5)CC4)n3)cc2Br)CC1 [68a, methyl 1-(2-(4-(5-(4-benzylpiperidine-1-carbonyl)-1,2,4-oxadiazol-3-yl)-2,6-dibromophenoxy)acetyl)piperidine-4-carboxylate]	–
18.9 µM	O=C(COc1c(Br)cc(-c2noc(C(=O)N3CCC(Cc4ccccc4)CC3)n2)cc1Br)N(CCO)CCO [71a, 2-(4-(5-(4-benzylpiperidine-1-carbonyl)-1,2,4-oxadiazol-3-yl)-2,6-dibromophenoxy)-N,N-bis(2-hydroxyethyl)acetamide]	–
2.6 µM	O=C(NCc1cccc(C(F)(F)F)c1)c1noc(-c2cc(Cl)c(O)c(Cl)c2)n1 [74a, 5-(3,5-dichloro-4-hydroxyphenyl)-N-(3-(trifluoromethyl)benzyl)-1,2,4-oxadiazole-3-carboxamide]	–
–	Cc1noc(C)c1CCNC(=O)c1ncn(-c2cc(Cl)c(O)c(Cl)c2)n1 [74i, 1-(3,5-dichloro-4-hydroxyphenyl)-N-(2-(3,5-dimethylisoxazol-4-yl)ethyl)-1H-1,2,4-triazole-3-carboxamide]	IC50 [1]: 1.28 µM
2.09 µM	O=C(NCc1cccc(OC(F)(F)F)c1)c1noc(-c2cc(Cl)c(O)c(Cl)c2)n1 [75a, 5-(3,5-dichloro-4-hydroxyphenyl)-N-(3-(trifluoromethoxy)benzyl)-1,2,4-oxadiazole-3-carboxamide]	–
–	CC(C)(C)CCN(Cc1cccc(OC(F)(F)F)c1)C(=O)c1ncn(-c2cc(Cl)c(O)c(Cl)c2)n1 [77i, 1-(3,5-dichloro-4-hydroxyphenyl)-N-(3,3-dimethylbutyl)-N-(3-(trifluoromethoxy)benzyl)-1H-1,2,4-triazole-3-carboxamide]	IC50 [1]: 3.01 µM
11.2 µM	O=C(c1noc(-c2cc(Cl)c(O)c(Cl)c2)n1)N1CCC(Cc2ccccc2)CC1 [78a, (4-benzylpiperidin-l-yl)(5-(3,5-dichloro-4-hydroxyphenyl)-1,2,4-oxadiazol-3-yl)methanone]	–
17.5 µM	O=C(NCc1ccc(Oc2ccccc2)cc1)c1noc(-c2cc(Cl)c(O)c(Cl)c2)n1 [79a, 5-(3,5-dichloro-4-hydroxyphenyl)-N-(4-phenoxybenzyl)-1,2,4-oxadiazole-3-carboxamide]	–
–	CC(C)(C)CCN(Cc1cccc(C(F)(F)F)c1)C(=O)c1ncn(-c2cc(Cl)c(O)c(Cl)c2)n1 [79i, 1-(3,5-dichloro-4-hydroxyphenyl)-N-(3,3-dimethylbutyl)-N-(3-(trifluoromethyl)benzyl)-1H-1,2,4-triazole-3-carboxamide]	IC50 [1]: 2.23 µM

IC50 [2]	SMILES	other results
8.14 µM	O=C(NCc1ccc(F)c(F)c1)c1noc(-c2cc(Cl)c(O)c(Cl)c2)n1 [80a, 5-(3,5-dichloro-4-hydroxyphenyl)-N-(3,4-difluorobenzyl)-1,2,4-oxadiazole-3-carboxamide]	–
14.8 µM	Cc1ccc(CNC(=O)c2noc(-c3cc(Cl)c(O)c(Cl)c3)n2)cc1 [81a, 5-(3,5-dichloro-4-hydroxyphenyl)-N-(4-methylbenzyl)-1,2,4-oxadiazole-3-carboxamide]	–
7.28 µM	O=C(NCc1ccccc1Cl)c1noc(-c2cc(Cl)c(O)c(Cl)c2)n1 [83a, N-(2-chlorobenzyl)-5-(3,5-dichloro-4-hydroxyphenyl)-1,2,4-oxadiazole-3-carboxamide]	–
4.03 µM	CN(Cc1ccc(Cl)cc1)C(=O)c1noc(-c2cc(Cl)c(O)c(Cl)c2)n1 [84a, N-(4-chlorobenzyl)-5-(3,5-dichloro-4-hydroxyphenyl)-N-methyl-1,2,4-oxadiazole-3-carboxamide]	–
–	O=C(c1ncn(-c2cc(Cl)c(O)c(Cl)c2)n1)N(Cc1ccccc1)Cc1cccc(OC(F)(F)F)c1 [84i, N-benzyl-1-(3,5-dichloro-4-hydroxyphenyl)-N-(3-(trifluoromethoxy)benzyl)-1H-1,2,4-triazole-3-carboxamide]	IC50 [1]: 6.81 µM
2.33 µM	O=C(NCc1cc(Cl)cc(Cl)c1)c1noc(-c2cc(Cl)c(O)c(Cl)c2)n1 [85a, 5-(3,5-dichloro-4-hydroxyphenyl)-N-(3,5-dichlorobenzyl)-1,2,4-oxadiazole-3-carboxamide]	–
–	O=C(c1ncn(-c2cc(Cl)c(O)c(Cl)c2)n1)N(Cc1ccccc1)Cc1cccc(C(F)(F)F)c1 [85i, N-benzyl-1-(3,5-dichloro-4-hydroxyphenyl)-N-(3-(trifluoromethyl)benzyl)-1H-1,2,4-triazole-3-carboxamide]	IC50 [1]: 3.16 µM
2.12 µM	O=C(NCc1cccc(Cl)c1)c1noc(-c2cc(Cl)c(O)c(Cl)c2)n1 [86a, N-(3-chlorobenzyl)-5-(3,5-dichloro-4-hydroxyphenyl)-1,2,4-oxadiazole-3-carboxamide]	–
3.42 µM	CN(Cc1ccc(C(F)(F)F)cc1)C(=O)c1noc(-c2cc(Cl)c(O)c(Cl)c2)n1 [87a, 5-(3,5-dichloro-4-hydroxyphenyl)-N-methyl-N-(4-(trifluoromethyl)benzyl)-1,2,4-oxadiazole-3-carboxamide]	–
6.2 µM	O=C(NCc1ccccc1C(F)(F)F)c1noc(-c2cc(Cl)c(O)c(Cl)c2)n1 [88a, 5-(3,5-dichloro-4-hydroxyphenyl)-N-(2-(trifluoromethyl)benzyl)-1,2,4-oxadiazole-3-carboxamide]	–
2.52 µM	O=C(c1nc(-c2cc(Cl)c(O)c(Cl)c2)no1)N(Cc1cccnc1)Cc1cccc(C(F)(F)F)c1 [89a, 3-(3,5-dichloro-4-hydroxyphenyl)-N-(pyridin-3-ylmethyl)-N-(3-(trifluoromethyl)benzyl)-1,2,4-oxadiazole-5-carboxamide]	–
–	Oc1c(Br)cc(-c2cnc(OCc3cccc(OCc4ccccc4)c3)nn2)cc1Br [89e, 4-(3-(3-(benzyloxy)benzyloxy)-1,2,4-triazin-6-yl)-2,6-dibromophenol]	IC50 (triazine-containing compounds (Table 8 and 8′), read-out: IC50): 1.47 µM
8.38 µM	O=C(CN(Cc1cccc(C(F)(F)F)c1)C(=O)c1nc(-c2cc(Cl)c(O)c(Cl)c2)no1)c1ccccc1 [90a, 3-(3,5-dichloro-4-hydroxyphenyl)-N-(2-oxo-2-phenylethyl)-N-(3-(trifluoromethyl)benzyl)-1,2,4-oxadiazole-5-carboxamide]	–
–	CN(Cc1cccc(C(F)(F)F)c1)C(=O)c1n[nH]c(-c2cc(Cl)c(O)c(Cl)c2)n1 [90c, 5-(3,5-dichloro-4-hydroxyphenyl)-N-methyl-N-(3-(trifluoromethyl)benzyl)-1H-1,2,4-triazole-3-carboxamide]	IC50 (triazole-containing compounds (c series), average of at least 2 runs unless annotated n = 1, read-out: IC50): 24.1 µM
2.15 µM	CC(C)(C)C(=O)CN(Cc1cccc(C(F)(F)F)c1)C(=O)c1nc(-c2cc(Cl)c(O)c(Cl)c2)no1 [91a, 3-(3,5-dichloro-4-hydroxyphenyl)-N-(3,3-dimethyl-2-oxobutyl)-N-(3-(trifluoromethyl)benzyl)-1,2,4-oxadiazole-5-carboxamide]	–
5.8 µM	CC(C)(C)C(=O)N1CCN(C(=O)c2nc(-c3cc(Br)c(O)c(Br)c3)no2)CC1 [93a, 1-(4-(3-(3,5-dibromo-4-hydroxyphenyl)-1,2,4-oxadiazole-5-carbonyl)piperazin-1-yl)-2,2-dimethylpropan-1-one]	–
2.86 µM	CC#CCN(Cc1cccc(C(F)(F)F)c1)C(=O)c1nc(-c2cc(Cl)c(O)c(Cl)c2)no1 [98a, N-(but-2-ynyl)-3-(3,5-dichloro-4-hydroxyphenyl)-N-(3-(trifluoromethyl)benzyl)-1,2,4-oxadiazole-5-carboxamide]	–
6.71 µM	O=C(c1nc(-c2cc(Cl)c(O)c(Cl)c2)no1)N(Cc1cccc(C(F)(F)F)c1)Cc1cccc(C(F)(F)F)c1 [101a, 3-(3,5-dichloro-4-hydroxyphenyl)-N,N-bis(3-(trifluoromethyl)benzyl)-1,2,4-oxadiazole-5-carboxamide]	–
